Test results: US10556872B2, “Fatty acid synthase inhibitors and methods of use” (Hampton University, priority 2017, dated 2020)
pIC50: −log10 of the molar value.

Assays:
Assay type in all cases: cell-based
[1] = system: MCF-7 breast cancer cells; test: MTT assay, cell viability of MCF-7 breast cancer cells; settings: Homo sapiens, MCF7; MCF-7 cells, 24 hours of treatment
Procedure: An MTT assay was performed with the FAS inhibiting compounds of Formulae II, III, IV and V (e.g., Compound 1A) on MCF-7 breast cancer cells, with an IC50 of about […] after 24 hours of treatment. The results are illustrated in FIG. 2.
(§1) Antiproliferative effect of FAS inhibitors on MCF-7 cells was determined by performing MTT assay. Roughly, 10,000 cells per well were plated in 96-well cell culture microplate (Costar, USA) and incubated overnight in full media (DMEM containing 10% FBS) for cells to adhere to the plate. Cells were then treated with various concentrations of inhibitors and vehicle for 24 hrs in serum free media. Cell viability was evaluated by the MTT (Sigma-Aldrich, St. Louis, Mont.) assay. The absorbance of solubilized formazan was read at 570 nm using ELISA reader (Bio-TEK, Synergy-1).

H460 lung cancer cells = test: MTT assay, cell viability of H460 lung cancer cells
Procedure: as §1
(§2) We treated H460 lung cancer cells, MDA-MB-231 breast cancer cells, and PC-3 prostate cancer cells with the FAS inhibitor, Compound 1A.

[2] = system: MDA-MB-231 breast cancer cells; test: MTT assay, cell viability of MDA-MB-231 breast cancer cells; settings: MDA-MB-231 cells
Procedure: as §1, §2

[3] = system: PC-3 prostate cancer cells; test: MTT assay, cell viability of PC-3 prostate cancer cells; settings: PC-3 cells
Procedure: as §1, with “Cells were then treated with various concentrations of inhibitors and vehicle for 24 hrs in serum free media.” left out
as §2

pIC50 [1] | SMILES | cell viability (MTT) (H460 lung cancer cells; 24-hr treatment (FIG. 4: 10 μM)) | cell viability (MTT) ([2]; 24-hr treatment (FIG. 5: 10 μM)) | cell viability (MTT) ([3]; 72-hr treatment (FIG. 6B: 10 μM)) | anticancer effect (MTT assay), fragment alone (H460 lung cancer cells) | anticancer effect (MTT assay), fragment alone [2] | anticancer effect (MTT assay), fragment alone [3]
~5.00 | CCCCCCCCCCCCCCCCOC(=O)CCn1cc(Br)c(=O)[nH]c1=O [Compound 1A, Hexadecyl 3-(5-bromo-2,4-dioxo-3,4-dihydropyrimidin-1(2H)-yl)propanoate] | significantly reduced the viability | significantly reduced the viability | reduced the viability |  |  | 
 | O=C(CCn1cc(Br)c(=O)[nH]c1=O)OCCO [5-Bromouracil ester, 2-Hydroxyethyl3-(5-bromo-2,4-dioxo-3,4-dihydropirimidin-1(2H)-yl)propanoate] |  |  |  | no anticancer effect | no anticancer effect | no anticancer effect
 | O=c1[nH]cc(Br)c(=O)[nH]1 [5-Bromouracil] |  |  |  | no anticancer effect | no anticancer effect | no anticancer effect
